Measured values reported in patent US12415799B2, “Indazole-fused cyclic compound” (Zhejiang Yangli Pharmaceutical Technology Co., Ltd., priority 2020, dated 2025).
Like-named read-outs stand apart in the source and are kept apart here.

What was measured:
CYP1A2 = CYP1A2 (Homo sapiens (Human), UniProt P05177); assay type: in vitro ADME; details: microsomes
Description: (§1) Experimental purposes: To test the inhibitory effect of test compound on the activity of human liver microsomal cytochrome P450 isoenzymes (CYP1A2 and CYP3A4) (Corning, Co., Ltd.).
(§2) Experimental operation: Firstly, the test compound (10 mM) was subjected to gradient dilution to prepare a working solution (100×final concentration), and the concentration of the working solution was: 5, 1.5, 0.5, 0.15, 0.05, 0.015 and 0.005 mM, respectively, and the working solution of each positive inhibitor of P450 isoenzyme (CYP1A2 and CYP3A4) and its specific substrate mixture (5 in 1) were prepared; and then the human liver microsomes frozen in the −80° C. refrigerator were thawed on ice, and all the human liver microsomes were dissolved, diluted with PB, and a certain concentration of working solution (0.253 mg/mL) was prepared; 20 μL of substrate mixture was added to the reaction plate (20 μL of PB was added to the blank well), while 158 μL of human liver microsomal working solution was added to the reaction plate, and the reaction plate was placed on ice for later use; at this time, 2 μL of various concentrations of the test compound (N=1) and specific inhibitor (N=2) were added to the corresponding well, and the corresponding organic solvent was added to the non-inhibitor (test compound or positive inhibitor) group as a control group sample (a ratio of DMSO:MeOH in the test compound control sample was 1:1, a ratio of DMSO:MeOH in the positive control sample was 1:9); after pre-incubation in a water bath at 37° C. for 10 min, 20 μL of coenzyme factor (NADPH) solution was added to the reaction plate, and incubated in a water bath at 37° C. for 10 min; and 400 μL of cold acetonitrile solution (internal standard was 200 ng/mL tolbutamide and labetalol) was added to terminate the reaction; the reaction plate was placed on a shaker and shaked for 10 minutes; and then centrifuged at 4,000 rpm for 20 minutes; 200 μL of the supernatant was taken and added to 100 μL of water for sample dilution; finally the plate was sealed, shaked and shaked well, for LC/MS/MS detection.

MCF-7 cells = experiment: MCF-7 cell proliferation inhibition experiment; assay type: cell-based; details: Homo sapiens, MCF7, 144 h, 6 days incubation, CellTiter-Glo, read-out: Anti-cell proliferation activity of MCF-7
Description: (1) MCF-7 Cell Proliferation Inhibition Experiment:
(§3) EMEM culture medium was purchased from Wisent, and fetal bovine serum was purchased from Biosera, Promega CellTiter-Glo reagent. MCF-7 cell line was purchased from Cell Bank of Type Culture Collection of Chinese Academy of Sciences. Nivo5 multi-label analyzer (PerkinElmer).
MCF-7 cells were seeded in a white 384-well plate with 600 cells per well in every […] of the cell suspension. The cell plate was placed in a carbon dioxide incubator and cultured overnight.
The test compound was diluted to the 10th concentration with a multi-channel pipette, and the compound concentration was 1 mM, 400 μM, and 80 μM, and then diluted to the 10th concentration of 1 nM in turn, and a double-duplicate experiment was set-up. 47.5 μL of culture medium was added to the middle plate, then 2.5 μL of gradient dilution compound per well was transferred to the middle plate according to the corresponding position, and 5 μL of the mixture per well was mixed evenly and transferred to the cell plate. The cell plate was placed in a carbon dioxide incubator and cultured for 6 days.
After 6 days of co-incubation of the compound, the culture medium was removed by centrifugation, and 25 μL of Promega CellTiter-Glo reagent was added to each well of the cell plate, and incubated at room temperature for 10 minutes to stabilize the luminescence signal. PerkinElmer Nivo multi-marker analyzer reading was used. In the experiment, the reading of 2 μM positive reference compound H3B-6545(US20160347717A1) was used as a positive control to participate in data calculation.
The equation % Inhibition=((RFUCmpd−AVER(RFUNeg.ctrl))/((AVER(RFUPos.Ctrl)−AVER(RFUNeg.ctrl))×100% was used to convert the original data into inhibition rate, and the compound curve was fitted by log(inhibitor)vs. response-Variable slope of Graphpad Prism 5. The IC50 value was calculated by the software through the formula Y=Bottom+(Top−Bottom)/(1+10^((Log IC50−X)*HillSlope)).

CYP3A4 = CYP3A4 (Homo sapiens (Human), UniProt P08684); experiment: Cytochrome P450 isoenzyme inhibition, human liver microsomes; assay type: in vitro ADME
CYP3A4, sequence (P08684 whole entry): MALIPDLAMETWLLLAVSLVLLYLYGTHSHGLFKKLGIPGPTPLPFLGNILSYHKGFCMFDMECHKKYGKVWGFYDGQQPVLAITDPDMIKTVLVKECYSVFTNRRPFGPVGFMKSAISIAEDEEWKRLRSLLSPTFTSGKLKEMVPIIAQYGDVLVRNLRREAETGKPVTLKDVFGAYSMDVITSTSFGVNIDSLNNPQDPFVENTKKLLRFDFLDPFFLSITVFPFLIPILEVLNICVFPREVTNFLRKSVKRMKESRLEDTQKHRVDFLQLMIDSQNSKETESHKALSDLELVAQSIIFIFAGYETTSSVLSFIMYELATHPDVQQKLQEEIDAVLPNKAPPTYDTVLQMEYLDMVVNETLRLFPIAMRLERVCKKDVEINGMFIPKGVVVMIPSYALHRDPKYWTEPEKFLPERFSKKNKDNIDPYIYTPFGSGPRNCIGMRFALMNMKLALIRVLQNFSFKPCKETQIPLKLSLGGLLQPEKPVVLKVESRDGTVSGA
Description: as §1, §2

ERα = ERα (Homo sapiens (Human), UniProt P03372); experiment: Degradation experiment of MCF-7 ERα (ELISA); assay type: cell-based; details: MCF-7 cell line, 4 hours incubation, total ERα ELISA; read-out: IC50 value of promoting ERα degradation
ERα, sequence (P03372 whole entry): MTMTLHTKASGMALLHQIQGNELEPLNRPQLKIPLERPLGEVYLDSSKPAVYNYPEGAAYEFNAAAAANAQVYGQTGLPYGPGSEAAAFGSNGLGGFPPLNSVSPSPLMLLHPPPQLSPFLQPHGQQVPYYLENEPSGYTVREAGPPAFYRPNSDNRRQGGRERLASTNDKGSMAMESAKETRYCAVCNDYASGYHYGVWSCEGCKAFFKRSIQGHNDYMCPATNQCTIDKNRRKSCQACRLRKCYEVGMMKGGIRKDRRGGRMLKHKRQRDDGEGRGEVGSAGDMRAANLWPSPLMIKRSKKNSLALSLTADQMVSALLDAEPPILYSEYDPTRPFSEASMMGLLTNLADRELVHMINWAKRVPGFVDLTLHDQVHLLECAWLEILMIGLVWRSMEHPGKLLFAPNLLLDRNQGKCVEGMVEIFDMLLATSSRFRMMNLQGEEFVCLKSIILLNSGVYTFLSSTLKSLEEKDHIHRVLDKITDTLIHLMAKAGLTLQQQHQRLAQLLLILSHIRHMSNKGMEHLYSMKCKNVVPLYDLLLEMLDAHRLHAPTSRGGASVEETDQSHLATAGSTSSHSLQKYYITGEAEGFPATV
From the text: (2) Degradation Experiment of MCF-7 ERα Experimental Materials:
as §3, with “Phenol red-free MEM” for “EMEM”, “Wisent,” for “Wisent, and”, “and Human Total ERα/NR3A1 ELISA kit was purchased from R&D.” for “Promega CellTiter-Glo reagent.”
MCF-7 cells were resuspended in culture medium (phenol red-free MEM+5% charcoal/dextran-treated fetal bovine serum+1% penicillin-streptomycin double antibody solution), and seeded in a clear 96-well cell culture plate with 80 μL per well containing 20,000 cells, and the cell culture plate was incubated overnight in a carbon dioxide incubator;
ELISA plate was coated with strips, human total estrogen receptor a capture antibody was diluted with 1×PBS with a final concentration of 1 μg/mL, and 100 μL of mixture was added to each well, and incubated overnight at 25° C.
Cell administration: The test compound was diluted to the 8th concentration with a multi-channel pipette, and the compound concentration was 20 μM and 4 μM, and then diluted to the 8th concentration of 0.256 nM in turn, and a double-duplicate experiment was set-up. 78 μL of culture medium was added to the middle plate, then 2 μL of gradient dilution compound per well was transferred to the middle plate according to the corresponding position, and 20 μL of the mixture per well was mixed evenly and transferred to the cell plate, and the final concentration of DMSO was 0.5%, and the mixture was incubated at 37° C. for 4 hours;
preparation of standard curve solution: 110 ng/mL of standard curve storage solution was 6-fold diluted with buffer (1×PBS containing 1 mM EDTA, 0.5% Triton X-100, pH 7.2 to 7.4) to obtain a solution with a concentration of 18.3 ng/mL, and then 91.5-fold diluted with buffer (1×PBS containing 1 mM EDTA, 0.5% Triton X-100, 1 M urea, pH 7.2 to 7.4) to obtain a solution with a concentration of 0.2 ng/mL, and 8-point gradient dilution was performed using buffer (1×PBS containing 1 mM EDTA, 0.5% Triton X-100, 1 M urea, pH 7.2 to 7.4) with a final concentration of […].
1×PBS was pre-cooled, and after the incubation of the compound, the supernatant was removed, and then the plate was washed with 250 μL of pre-cooled 1×PBS per well, then 30 µL of cell lysate per well (1×PBS containing 1 mM EDTA, 0.5% Triton X-100, 6 M urea, 1 mM active sodium orthovanadate, 2.5 mM sodium pyrophosphate, lx protease inhibitor, pH 7.2 to 7.4) was added, and lysed on ice for 15 minutes;
after cell was lysed in the cell plate, the cell lysate was 6-fold diluted with 150 μL of buffer (1×PBS containing 1 mM EDTA, 0.5% Triton X-100, pH 7.2 to 7.4) per well, and the mixture was mixed evenly by blowing with a multi-channel pipette, and 100 μL of solution per well was transferred to the ELISA plate;
the human total estrogen receptor a detection antibody stock solution (14.4 μg/mL) was 36-fold diluted with buffer (1×PBS containing 1% bovine serum albumin), and the final concentration of the detection antibody was 400 ng/mL, and 100 μL of the solution per well was transferred to the ELISA plate and incubated at 25° C. for 2 hours;
Data analysis: A, B, C and D in the four-parameter equation y=(A−D)/[1+(x/C)^B]+D were calculated according to the original data of the standard curve, wherein, y was the original OD450 value, x was the concentration of the corresponding point of the standard curve. According to the four-parameter equation and the OD450 reading of the original data of the sample, the concentration of ERα at the corresponding point was calculated. The equation (Sample−Min)/(Max−Min)×100% was used to convert the original data into inhibition rate, and the IC50 value could be obtained by curve fitting with four parameters (obtained by “log (inhibitor) vs. response—variable slope” mode in GraphPad Prism).
Max wells: Positive control wells reading at 100 nM Fulvestrant-treated cell wells […]

rat uterus = experiment: Uterine wet weight inhibition experiment in rat cubs; assay type: in vivo; details: 18-day-old female rat pups, oral, three consecutive days; compounds 25 mg/kg, Ethinylestradiol 0.1 mg/kg
Description: The purpose of this experiment was to evaluate the effect of the compound of the present disclosure on uterine growth inhibition in 18 to 21-day-old female rat pups (provided by Beijing Vital River Laboratory Animal Technology Co., Ltd.). In this experiment, 18-day-old female rat pups were orally administered the compound of the present disclosure at a dose of 25 mg/kg for three consecutive days, and the control group was orally administered 0.1 mg/kg of Ethinylestradiol for three consecutive days, and the blank group was not given any drug except the corresponding solvent. Three days after the administration, the rats were sacrificed, and the weight of the rat uterus was weighed to observe the effect of the test drug on the growth inhibition of the rat uterus. Inhibition rate=100×[(VehicleEE−Cpd)/(VehicleEE−Vehicle)], VehicleEE was the wet weight of the rat uterus in the control group (administered 0.1 mg/kg of Ethinylestradiol orally); Cpd was the wet weight of the rat uterus in administration group; Vehicle was the wet weight of the rat uterus in the blank group.

breast cancer = details: intramuscular injection; cited from earlier work
[1] = in vivo, cited from earlier work

CYP1A2, sequence (P05177 whole entry): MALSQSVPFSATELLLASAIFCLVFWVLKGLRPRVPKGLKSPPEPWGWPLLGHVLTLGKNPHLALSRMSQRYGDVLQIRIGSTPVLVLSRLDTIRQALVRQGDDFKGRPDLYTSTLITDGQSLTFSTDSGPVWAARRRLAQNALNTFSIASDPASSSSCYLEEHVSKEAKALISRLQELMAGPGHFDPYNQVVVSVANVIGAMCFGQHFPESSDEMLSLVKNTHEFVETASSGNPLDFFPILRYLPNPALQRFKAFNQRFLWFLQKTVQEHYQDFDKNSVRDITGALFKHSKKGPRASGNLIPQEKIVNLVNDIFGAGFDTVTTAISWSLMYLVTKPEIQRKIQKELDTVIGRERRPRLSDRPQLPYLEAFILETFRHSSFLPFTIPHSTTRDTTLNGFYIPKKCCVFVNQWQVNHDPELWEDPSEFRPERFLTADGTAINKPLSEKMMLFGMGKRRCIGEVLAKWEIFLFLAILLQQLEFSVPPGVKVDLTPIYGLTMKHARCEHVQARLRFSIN

| SMILES | IC50 (CYP1A2; human, 10 min) [nM] | IC50 (MCF-7 cells) [nM] | IC50 (CYP3A4) [nM] | DC50 (ERα) [nM] | other results |
| --- | --- | --- | --- | --- | --- |
| FCCCN1CC(Nc2cnc(C3=C(CC(F)(F)F)CCOc4c3ccc3[nH]ncc43)cn2)C1 [Compound 3] | > 50000 | 1.37 | 13600 | 0.45 |  |
| FCCCN1CC(Nc2cnc(C3=C(CC(F)(F)F)CCCc4c3ccc3[nH]nc(F)c43)cn2)C1 [Compound 8] |  | 0.7 | 42100 | 0.37 | IC50 (CYP1A2): > 50000 nM |
| N#Cc1cc(C2=C(CC(F)(F)F)CCCc3c2ccc2[nH]nc(F)c32)ncc1NC1CN(CCCF)C1 [Compound 10] | 47500 |  | 30800 |  |  |
| C#C[C@]1(O)CC[C@H]2[C@@H]3CCc4cc(O)ccc4[C@H]3CC[C@@]21C [Ethinylestradiol, reference compound] |  |  |  |  | Inhibition rate (rat uterus): 0%; Ratio of uterine wet weight/rat body weight (rat uterus): 2.45 mg/g; Uterine wet weight (rat uterus): 132.2 mg |
| C[C@]12CC[C@@H]3c4ccc(O)cc4C[C@@H](CCCCCCCCC[S+]([O-])CCCC(F)(F)C(F)(F)F)[C@H]3[C@@H]1CC[C@@H]2O (some centres unmarked) [fulvestrant, Fulvestrant] |  |  |  |  | breast cancer patients showing clinical response (breast cancer): about 50%; oral bioavailability ([1]; po): close to zero; blood clearance rate [1]: high |

Continued, in another order:

| IC50 (CYP1A2; human, 10 min) [nM] | IC50 (MCF-7 cells) [nM] | IC50 (CYP3A4) [nM] | DC50 (ERα) [nM] | SMILES | other results |
| --- | --- | --- | --- | --- | --- |
| > 50000 |  | 11100 | 0.17 | FCCCN1CC(Nc2ncc(C3=C(CC(F)(F)F)CCCc4c3ccc3[nH]ncc43)cn2)C1 [Compound 4] |  |
|  | 0.19 |  | 0.017 | FCCCN1CC(Nc2cnc(C3=C(CC(F)(F)F)CCCc4c3ccc3[nH]ncc43)cn2)C1 [Compound 5] |  |
|  | 0.31 |  | 0.42 | FCCCN1CC(Nc2ccc(C3=C(CC(F)(F)F)CCCc4c3ccc3[nH]ncc43)nc2)C1 [Compound 6] |  |
|  |  |  | 0.4 | FCCCN1CC(Nc2cnc(C3=C(CC(F)(F)F)CCCc4c3ccc3[nH]ncc43)nc2)C1 [Compound 7] |  |
|  | 0.42 |  | 0.25 | OCCCC1=C(c2ccc(OC3CN(CCCF)C3)cc2)c2ccc3[nH]ncc3c2CCC1 [Formate of 1] |  |
